Test results: PubChem BioAssay (NCI)
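The compound was tested at five concentrations on cells cultured in 96-well plates, with a 48-hour exposure period. GI50 is the concentration that inhibits growth by half. At the TGI there is no net growth.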

Legend:
Experiment in all cases: inhibition of tumour cell growth, NCI panel, 48 h
786-0 renal = system: 786-0 renal
A498 renal = system: A498 renal
A549 NSCLC = system: A549 NSCLC
ACHN renal = system: ACHN renal
BT-549 breast = system: BT-549 breast
CAKI-1 renal = system: CAKI-1 renal
CCRF-CEM leukemia = system: CCRF-CEM leukemia
COLO 205 colon = system: COLO 205 colon
DU-145 prostate = system: DU-145 prostate
HCC-2998 colon = system: HCC-2998 colon
HCT-116 colon = system: HCT-116 colon
HCT-15 colon = system: HCT-15 colon
HL-60(TB) leukemia = system: HL-60(TB) leukemia
HOP-62 NSCLC = system: HOP-62 NSCLC
HOP-92 NSCLC = system: HOP-92 NSCLC
HS 578T breast = system: HS 578T breast
HT29 colon = system: HT29 colon
IGROV1 ovarian = system: IGROV1 ovarian
K-562 leukemia = system: K-562 leukemia
KM12 colon = system: KM12 colon
LOX IMVI melanoma = system: LOX IMVI melanoma
M14 melanoma = system: M14 melanoma
MCF7 breast = system: MCF7 breast
MDA-MB-231 breast = system: MDA-MB-231 breast
MDA-MB-435 = system: MDA-MB-435
MOLT-4 leukemia = system: MOLT-4 leukemia
NCI-H226 lung = system: NCI-H226 lung
NCI-H23 lung = system: NCI-H23 lung
NCI-H460 lung = system: NCI-H460 lung
NCI-H522 lung = system: NCI-H522 lung
NCI/ADR-RES ovarian = system: NCI/ADR-RES ovarian
OVCAR-3 ovarian = system: OVCAR-3 ovarian
OVCAR-4 ovarian = system: OVCAR-4 ovarian
OVCAR-5 ovarian = system: OVCAR-5 ovarian
OVCAR-8 ovarian = system: OVCAR-8 ovarian
PC-3 prostate = system: PC-3 prostate
RPMI-8226 leukemia = system: RPMI-8226 leukemia
RXF 393 renal = system: RXF 393 renal
SF-268 CNS = system: SF-268 CNS
SF-539 CNS = system: SF-539 CNS
SK-MEL-2 melanoma = system: SK-MEL-2 melanoma
SK-MEL-28 melanoma = system: SK-MEL-28 melanoma
SK-MEL-5 melanoma = system: SK-MEL-5 melanoma
SK-OV-3 ovarian = system: SK-OV-3 ovarian
SN12C renal = system: SN12C renal
SNB-75 CNS = system: SNB-75 CNS
SR leukemia = system: SR leukemia
SW-620 colon = system: SW-620 colon
T-47D breast = system: T-47D breast
TK-10 renal = system: TK-10 renal
U251 CNS = system: U251 CNS
UACC-257 melanoma = system: UACC-257 melanoma
UACC-62 melanoma = system: UACC-62 melanoma
UO-31 renal = system: UO-31 renal
EKVX NSCLC = system: EKVX NSCLC
MALME-3M melanoma = system: MALME-3M melanoma
SF-295 CNS = system: SF-295 CNS
SNB-19 CNS = system: SNB-19 CNS

## CN1CCN(c2nc(-c3ccncc3)nc3sc4c(c23)CCCCCC4)CC1
786-0 renal
  GI50: 4.77 µM
  TGI: 20.2 µM
A498 renal
  GI50: 1.06 µM
  TGI: 7.56 µM
A549 NSCLC
  GI50: 11.4 µM
  TGI: 25.3 µM
ACHN renal
  GI50: 7.99 µM
  TGI: 20.5 µM
BT-549 breast
  GI50: 6.35 µM
  TGI: 19.9 µM
CAKI-1 renal
  GI50: 3.44 µM
  TGI: 19.4 µM
CCRF-CEM leukemia
  GI50: 8.05 µM
  TGI: 28.8 µM
COLO 205 colon
  GI50: 4.94 µM
  TGI: 17.2 µM
DU-145 prostate
  GI50: 12.7 µM
  TGI: 26.4 µM
HCC-2998 colon
  GI50: 3.91 µM
  TGI: 13.2 µM
HCT-116 colon
  GI50: 5.13 µM
  TGI: 17.7 µM
HCT-15 colon
  GI50: 11.3 µM
  TGI: 24.3 µM
HL-60(TB) leukemia
  GI50: 12.6 µM
  TGI: 29.8 µM
HOP-62 NSCLC
  GI50: 6.5 µM
  TGI: 19.4 µM
HOP-92 NSCLC
  GI50: 0.654 µM
  TGI: 5.32 µM
HS 578T breast
  GI50: 2.3 µM
  TGI: 13.9 µM
HT29 colon
  GI50: 4.75 µM
  TGI: 17.3 µM
IGROV1 ovarian
  GI50: 8.16 µM
  TGI: 22 µM
K-562 leukemia
  GI50: 3.53 µM
  TGI: 16.3 µM
KM12 colon
  GI50: 13.4 µM
  TGI: 28 µM
LOX IMVI melanoma
  GI50: 8.23 µM
  TGI: 20.5 µM
M14 melanoma
  GI50: 5.32 µM
  TGI: 18 µM
MCF7 breast
  GI50: 6.61 µM
  TGI: 20.4 µM
MDA-MB-231 breast
  GI50: 4.26 µM
  TGI: 18.7 µM
MDA-MB-435
  GI50: 11.8 µM
  TGI: 26 µM
MOLT-4 leukemia
  GI50: 3.8 µM
  TGI: 16.2 µM
NCI-H226 lung
  GI50: 10.4 µM
  TGI: 34.2 µM
NCI-H23 lung
  GI50: 11.4 µM
  TGI: 24.3 µM
NCI-H460 lung
  GI50: 13.5 µM
  TGI: 29 µM
NCI-H522 lung
  GI50: 12 µM
  TGI: 24.6 µM
NCI/ADR-RES ovarian
  GI50: 8.17 µM
  TGI: 24.5 µM
OVCAR-3 ovarian
  GI50: 13.5 µM
  TGI: 27 µM
OVCAR-4 ovarian
  GI50: 12.7 µM
  TGI: 28 µM
OVCAR-5 ovarian
  GI50: 10.8 µM
  TGI: 22.9 µM
OVCAR-8 ovarian
  GI50: 12.2 µM
  TGI: 26.3 µM
PC-3 prostate
  GI50: 4.71 µM
  TGI: 18.2 µM
RPMI-8226 leukemia
  GI50: 8.39 µM
  TGI: 26.9 µM
RXF 393 renal
  GI50: 4.08 µM
  TGI: 19 µM
SF-268 CNS
  GI50: 5.34 µM
  TGI: 20.7 µM
SF-539 CNS
  GI50: 8.32 µM
  TGI: 21 µM
SK-MEL-2 melanoma
  GI50: 14.6 µM
  TGI: 28.2 µM
SK-MEL-28 melanoma
  GI50: 12.5 µM
  TGI: 25.1 µM
SK-MEL-5 melanoma
  GI50: 7.94 µM
  TGI: 20.5 µM
SK-OV-3 ovarian
  GI50: 12.2 µM
  TGI: 24.6 µM
SN12C renal
  GI50: 5.64 µM
  TGI: 22 µM
SNB-75 CNS
  GI50: 1.4 µM
  TGI: 7.75 µM
SR leukemia
  GI50: 2.81 µM
  TGI: 12.2 µM
SW-620 colon
  GI50: 11.9 µM
  TGI: 25.6 µM
T-47D breast
  GI50: 13.5 µM
  TGI: 29.3 µM
TK-10 renal
  GI50: 6.71 µM
  TGI: 20.5 µM
U251 CNS
  GI50: 9.29 µM
  TGI: 25 µM
UACC-257 melanoma
  GI50: 10.6 µM
  TGI: 23 µM
UACC-62 melanoma
  GI50: 11 µM
  TGI: 24 µM
UO-31 renal
  GI50: 1.57 µM
  TGI: 8.85 µM

## Oc1[nH]c2cc(Cl)ccc2c1/C=c1/ccc2c(c1)N=C(c1cc(F)cc(F)c1)N=2
786-0 renal
  GI50: 3.31 µM
  TGI: 12.8 µM
A498 renal
  GI50: 1.24 µM
  TGI: 6.36 µM
A549 NSCLC
  GI50: 1.64 µM
  TGI: 5.44 µM
ACHN renal
  GI50: 4.99 µM
  TGI: 19.9 µM
BT-549 breast
  GI50: 2.1 µM
  TGI: 10 µM
CAKI-1 renal
  GI50: 1.73 µM
  TGI: 16.6 µM
CCRF-CEM leukemia
  GI50: 0.657 µM
  TGI: 3.47 µM
COLO 205 colon
  GI50: 2.24 µM
  TGI: 5.29 µM
DU-145 prostate
  GI50: 1.98 µM
  TGI: 4.45 µM
EKVX NSCLC
  GI50: 5.27 µM
  TGI: 32.4 µM
HCC-2998 colon
  GI50: 4.86 µM
  TGI: 17.2 µM
HCT-116 colon
  GI50: 1.17 µM
  TGI: 3.17 µM
HCT-15 colon
  GI50: 3.37 µM
  TGI: 14.7 µM
HOP-62 NSCLC
  GI50: 1.35 µM
  TGI: 8.44 µM
HOP-92 NSCLC
  GI50: 0.741 µM
  TGI: 8.16 µM
HS 578T breast
  GI50: 1.55 µM
  TGI: 10.2 µM
HT29 colon
  GI50: 1.72 µM
  TGI: 5.94 µM
IGROV1 ovarian
  GI50: 3.29 µM
  TGI: 17.9 µM
K-562 leukemia
  GI50: 0.821 µM
  TGI: 12.1 µM
KM12 colon
  GI50: 2.2 µM
  TGI: 7.06 µM
LOX IMVI melanoma
  GI50: 2.22 µM
  TGI: 15.2 µM
M14 melanoma
  GI50: 1.52 µM
  TGI: 3.69 µM
MALME-3M melanoma
  GI50: 6.06 µM
  TGI: 27.4 µM
MCF7 breast
  GI50: 1.62 µM
  TGI: 11.3 µM
MDA-MB-231 breast
  GI50: 2.78 µM
  TGI: 12.3 µM
MDA-MB-435
  GI50: 0.57 µM
  TGI: 2.38 µM
MOLT-4 leukemia
  GI50: 1.45 µM
  TGI: 5.72 µM
NCI-H226 lung
  GI50: 5.78 µM
  TGI: 31 µM
NCI-H23 lung
  GI50: 2.47 µM
  TGI: 13 µM
NCI-H460 lung
  GI50: 1.64 µM
  TGI: 6.77 µM
NCI-H522 lung
  GI50: 1.19 µM
  TGI: 3.38 µM
NCI/ADR-RES ovarian
  GI50: 2.03 µM
  TGI: 6.75 µM
OVCAR-3 ovarian
  GI50: 1.41 µM
  TGI: 3.3 µM
OVCAR-4 ovarian
  GI50: 4.25 µM
  TGI: 16.1 µM
OVCAR-5 ovarian
  GI50: 6.34 µM
  TGI: 21.5 µM
OVCAR-8 ovarian
  GI50: 2.92 µM
  TGI: 10.3 µM
PC-3 prostate
  GI50: 2.12 µM
  TGI: 8.5 µM
RPMI-8226 leukemia
  GI50: 2.38 µM
  TGI: 6.28 µM
RXF 393 renal
  GI50: 2.08 µM
  TGI: 6.27 µM
SF-268 CNS
  GI50: 2.35 µM
  TGI: 11.7 µM
SF-295 CNS
  GI50: 0.509 µM
  TGI: 2.84 µM
SF-539 CNS
  GI50: 2.04 µM
  TGI: 5.96 µM
SK-MEL-2 melanoma
  GI50: 2.08 µM
  TGI: 7.03 µM
SK-MEL-28 melanoma
  GI50: 2.78 µM
  TGI: 13.6 µM
SK-MEL-5 melanoma
  GI50: 1.68 µM
  TGI: 7.59 µM
SK-OV-3 ovarian
  GI50: 2.38 µM
  TGI: 7.95 µM
SN12C renal
  GI50: 3.89 µM
  TGI: 16.5 µM
SNB-19 CNS
  GI50: 6.22 µM
  TGI: 26.2 µM
SNB-75 CNS
  GI50: 1.6 µM
  TGI: 6.07 µM
SR leukemia
  GI50: 2.22 µM
  TGI: 8.53 µM
SW-620 colon
  GI50: 1.1 µM
  TGI: 9.32 µM
T-47D breast
  GI50: 4.27 µM
  TGI: 17.7 µM
TK-10 renal
  GI50: 5.53 µM
  TGI: 18.8 µM
U251 CNS
  GI50: 1.06 µM
  TGI: 2.89 µM
UACC-257 melanoma
  GI50: 0.927 µM
  TGI: 19.2 µM
UACC-62 melanoma
  GI50: 0.71 µM
  TGI: 12.4 µM
UO-31 renal
  GI50: 3.68 µM
  TGI: 19 µM
